Test results reported in patent publication US9670227B2, “Thienopyrimidine derivatives, a process for their preparation and pharmaceutical compositions containing them” (LES LABORATOIRES SERVIER, priority 2013, dated 2017).
Read-outs that look alike come from different tables or passages of the source.

Key:
[1] = tested on: H929 multiple myeloma tumour line; assay: In vitro cytotoxicity, Microculture Tetrazolium Assay; assay type: cell-based; conditions: H929 cells, 48 hours exposure, MTT, read-out: IC50 (μM) MTT H929
Experimental: The cytotoxicity studies were carried out on the H929 multiple myeloma tumour line.
The cells are distributed onto microplates and exposed to the test compounds for 48 hours.

Mcl-1 protein = Mcl-1 protein (UniProtKB primary accession number: Q07820) (Homo sapiens, UniProt Q07820); assay: Inhibition of Mcl-1 by fluorescence polarisation, Method 1; assay type: binding; conditions: fluorescence polarisation test; Method 2 values are underlined in the patent (underlining not visible here); read-out: IC50 (M) Mcl-1 FP
Outline: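 Compounds were tested as 11-point serial dilutions at 5% final DMSO against 5 nM Mcl-1 with 1 nM fluorescein-labelled ligand in 10 mM HEPES, 150 mM NaCl, 0.05% Tween 20, pH 7.4. Relative binding potency was read by fluorescence polarisation.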

Sequence of Mcl-1 protein (Q07820 whole entry): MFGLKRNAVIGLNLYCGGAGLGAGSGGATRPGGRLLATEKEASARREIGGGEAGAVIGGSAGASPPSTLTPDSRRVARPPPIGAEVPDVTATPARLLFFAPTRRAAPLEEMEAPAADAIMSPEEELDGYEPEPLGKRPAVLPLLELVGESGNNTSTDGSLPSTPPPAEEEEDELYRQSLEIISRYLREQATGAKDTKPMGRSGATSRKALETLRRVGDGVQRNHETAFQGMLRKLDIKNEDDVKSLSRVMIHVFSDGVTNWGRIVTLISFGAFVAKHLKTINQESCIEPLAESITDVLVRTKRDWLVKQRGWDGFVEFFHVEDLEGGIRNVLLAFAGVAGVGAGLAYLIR

Q: Which IC50 ([1]; Homo sapiens, NCI-H929, 48 h) does the source give for `Cc1c(-c2c(-c3ccco3)sc3ncnc(OC(Cc4ccccc4OCc4cnnn4Cc4ccccc4)C(=O)O)c23)ccc(OCCN2CCN(C)CC2)c1Cl` [Example 295, (2R)-3-{2-[(1-benzyl-1H-1,2,3-triazol-5-yl)methoxy]phenyl}-2-{[(5Sa)-5-{3-chloro-2-methyl-4-[2-(4-methylpiperazin-1-yl)ethoxy]phenyl}-6-(furan-2-yl)thieno[2,3-d]pyrimidin-4-yl]oxy}propanoic acid] here?
A: The IC50 was 0.021 µM.

Q: What about the IC50 (Mcl-1 protein) of the same molecule?
A: The IC50 was 4.7e-09 M.

Q: Which results are given for `COc1ccccc1CC(Oc1ncnc2sc(-c3ccco3)c(-c3ccc(OCC4CCCN4C)c(Cl)c3C)c12)C(=O)O` [Example 298, (2R)-2-{[(5Sa)-5-(3-chloro-2-methyl-4-{[(2S)-1-methylpyrrolidin-2-yl]methoxy}phenyl)-6-(furan-2-yl)thieno[2,3-d]pyrimidin-4-yl]oxy}-3-(2-methoxyphenyl)propanoic acid]?
A: IC50 ([1]; Homo sapiens, NCI-H929, 48 h): 1.14 µM; IC50 (Mcl-1 protein): 1.2e-08 M

Q: Which results are given for `COc1ccccc1CC(Oc1ncnc2sc(-c3ccco3)c(-c3ccc(OCC4CCCN4C)c(Cl)c3C)c12)C(=O)O` [Example 299, (2R)-2-{[(5Sa)-5-(3-chloro-2-methyl-4-{[(2R)-1-methylpyrrolidin-2-yl]methoxy}phenyl)-6-(furan-2-yl)thieno[2,3-d]pyrimidin-4-yl]oxy}-3-(2-methoxyphenyl)propanoic acid]?
A: IC50 [1]: 1.03 µM; IC50 (Mcl-1 protein): 1.6e-08 M

Q: `COc1ccccc1CC(Oc1ncnc2sc(-c3ccco3)c(-c3ccc(OC4CCN(C)C4)c(Cl)c3C)c12)C(=O)O` [Example 303, (2R)-2-{[(5Sa)-5-{3-chloro-2-methyl-4-[(1-methylpyrrolidin-3-yl)oxy]phenyl}-6-(furan-2-yl)thieno[2,3-d]pyrimidin-4-yl]oxy}-3-(2-methoxyphenyl)propanoic acid] was tested. Which IC50 ([1]; Homo sapiens, NCI-H929, 48 h) did it give?
A: Its IC50 is 0.998 µM.

Q: What about the IC50 (Mcl-1 protein) of the same molecule?
A: Its IC50 is 9.3e-09 M.

Q: Which IC50 ([1]; Homo sapiens, NCI-H929, 48 h) does the source give for `COc1ccccc1CC(Oc1ncnc2sc(-c3ccco3)c(-c3ccc(OC4CCN(C)CC4)c(Cl)c3C)c12)C(=O)O` [Example 304, (2R)-2-{[(5Sa)-5-{3-chloro-2-methyl-4-[(1-methylpiperidin-4-yl)oxy]phenyl}-6-(furan-2-yl)thieno[2,3-d]pyrimidin-4-yl]oxy}-3-(2-methoxyphenyl)propanoic acid] here?
A: Its IC50 is 1.7 µM.

Q: And the IC50 (Mcl-1 protein)?
A: Its IC50 is 1.1e-08 M.

Q: For `COc1ccccc1CC(Oc1ncnc2sc(-c3ccco3)c(-c3ccc(OCC4CCN(C)C4)c(Cl)c3C)c12)C(=O)O` [Example 310, (2R)-2-{[(5Sa)-5-{3-chloro-2-methyl-4-[(1-methylpyrrolidin-3-yl)methoxy]phenyl}-6-(furan-2-yl)thieno[2,3-d]pyrimidin-4-yl]oxy}-3-(2-methoxyphenyl)propanoic acid], which IC50 ([1]; Homo sapiens, NCI-H929, 48 h) is on record?
A: The IC50 was 0.26 µM.

Q: And the IC50 (Mcl-1 protein)?
A: Its IC50 is 1.4e-08 M.

Q: `COc1ccccc1CC(Oc1ncnc2sc(-c3ccco3)c(-c3ccc(OCC4CCN(C)CC4)c(Cl)c3C)c12)C(=O)O` [Example 311, (2R)-2-{[(5Sa)-5-{3-chloro-2-methyl-4-[(1-methylpiperidin-4-yl)methoxy]phenyl}-6-(furan-2-yl)thieno[2,3-d]pyrimidin-4-yl]oxy}-3-(2-methoxyphenyl)propanoic acid] was tested. Which IC50 ([1]; Homo sapiens, NCI-H929, 48 h) did it give?
A: The IC50 was 1.59 µM.

Q: And the IC50 (Mcl-1 protein)?
A: The IC50 was 1.5e-08 M.

Q: What does the source list for `COCCN1CCC(COc2ccc(-c3c(-c4ccco4)sc4ncnc(OC(Cc5ccccc5OC)C(=O)O)c34)c(C)c2Cl)C1` [Example 312, (2R)-2-{[(5Sa)-5-(3-chloro-4-{[1-(2-methoxyethyl)pyrrolidin-3-yl]methoxy}-2-methylphenyl)-6-(furan-2-yl)thieno[2,3-d]pyrimidin-4-yl]oxy}-3-(2-methoxyphenyl)propanoic acid]?
A: IC50 ([1]; Homo sapiens, NCI-H929, 48 h): 1 µM; IC50 (Mcl-1 protein): 8.9e-09 M

Q: `COc1ccccc1CC(Oc1ncnc2sc(-c3ccco3)c(-c3ccc(OCC4CN(C)CCN4C)c(Cl)c3C)c12)C(=O)O` [Example 313, (2R)-2-{[(5Sa)-5-{3-chloro-4-[(1,4-dimethylpiperazin-2-yl)methoxy]-2-methylphenyl}-6-(furan-2-yl)thieno[2,3-d]pyrimidin-4-yl]oxy}-3-(2-methoxyphenyl)propanoic acid] was tested. Which IC50 ([1]; Homo sapiens, NCI-H929, 48 h) did it give?
A: Its IC50 is 0.886 µM.

Q: What about the IC50 (Mcl-1 protein) of the same molecule?
A: Its IC50 is 1e-08 M.

Q: What does the source list for `COc1ccccc1CC(Oc1ncnc2sc(-c3ccco3)c(-c3ccc(OCC4CN(C)CCO4)c(Cl)c3C)c12)C(=O)O` [Example 314, (2R)-2-{[(5Sa)-5-{3-chloro-2-methyl-4-[(4-methylmorpholin-2-yl)methoxy]phenyl}-6-(furan-2-yl)thieno[2,3-d]pyrimidin-4-yl]oxy}-3-(2-methoxyphenyl)propanoic acid]?
A: IC50 ([1]; Homo sapiens, NCI-H929, 48 h): 1.82 µM; IC50 (Mcl-1 protein): 6.9e-09 M

Q: What does the source list for `COc1ccccc1CC(Oc1ncnc2sc(-c3ccco3)c(-c3ccc(OCCC4CCCN4C)c(Cl)c3C)c12)C(=O)O` [Example 316, (2R)-2-{[(5Sa)-5-{3-chloro-2-methyl-4-[2-(1-methylpyrrolidin-2-yl)ethoxy]phenyl}-6-(furan-2-yl)thieno[2,3-d]pyrimidin-4-yl]oxy}-3-(2-methoxyphenyl)propanoic acid]?
A: IC50 ([1]; Homo sapiens, NCI-H929, 48 h): 1.46 µM; IC50 (Mcl-1 protein): 7.7e-09 M

Q: For `COc1ccccc1CC(Oc1ncnc2sc(-c3ccco3)c(-c3ccc(OCCC4CCN(C)CC4)c(Cl)c3C)c12)C(=O)O` [Example 317, (2R)-2-{[(5Sa)-5-{3-chloro-2-methyl-4-[2-(1-methylpiperidin-4-yl)ethoxy]phenyl}-6-(furan-2-yl)thieno[2,3-d]pyrimidin-4-yl]oxy}-3-(2-methoxyphenyl)propanoic acid], which IC50 ([1]; Homo sapiens, NCI-H929, 48 h) is on record?
A: The IC50 was 0.852 µM.

Q: What about the IC50 (Mcl-1 protein) of the same molecule?
A: Its IC50 is 1.8e-08 M.

Q: How did the IC50 ([1]; Homo sapiens, NCI-H929, 48 h) turn out when `COc1ccccc1CC(Oc1ncnc2sc(-c3ccco3)c(-c3ccc(OCCN)c(Cl)c3C)c12)C(=O)O` [Example 319, (2R)-2-({(5Sa)-5-[4-(2-aminoethoxy)-3-chloro-2-methylphenyl]-6-(furan-2-yl)thieno[2,3-d]pyrimidin-4-yl}oxy)-3-(2-methoxyphenyl)propanoic acid] was run?
A: Its IC50 is 0.834 µM.

Q: And the IC50 (Mcl-1 protein)?
A: The IC50 was 1.5e-08 M.

Q: For `COc1ccccc1CC(Oc1ncnc2sc(-c3ccco3)c(-c3ccc(OCCN(C)C)c(Cl)c3C)c12)C(=O)O` [Example 320, (2R)-2-{[(5Sa)-5-{3-chloro-4-[2-(dimethylamino)ethoxy]-2-methylphenyl}-6-(furan-2-yl)thieno[2,3-d]pyrimidin-4-yl]oxy}-3-(2-methoxyphenyl)propanoic acid], which IC50 ([1]; Homo sapiens, NCI-H929, 48 h) is on record?
A: Its IC50 is 0.471 µM.

Q: What about the IC50 (Mcl-1 protein) of the same molecule?
A: Its IC50 is 6.5e-09 M.

Q: `CCN1CCN(CCOc2ccc(-c3c(-c4ccco4)sc4ncnc(OC(Cc5ccccc5OC)C(=O)O)c34)c(C)c2Cl)CC1` [Example 322, (2R)-2-{[(5Sa)-5-{3-chloro-4-[2-(4-ethylpiperazin-1-yl)ethoxy]-2-methylphenyl}-6-(furan-2-yl)thieno[2,3-d]pyrimidin-4-yl]oxy}-3-(2-methoxyphenyl)propanoic acid] was tested. Which IC50 ([1]; Homo sapiens, NCI-H929, 48 h) did it give?
A: Its IC50 is 0.113 µM.

Q: And the IC50 (Mcl-1 protein)?
A: The IC50 was 4.3e-09 M.

Q: What does the source list for `COc1ccccc1CC(Oc1ncnc2sc(-c3ccco3)c(-c3ccc(OCCN4CCN(C(C)C)CC4)c(Cl)c3C)c12)C(=O)O` [Example 324, (2R)-2-{[(5Sa)-5-(3-chloro-2-methyl-4-{2-[4-(propan-2-yl)piperazin-1-yl]ethoxy}phenyl)-6-(furan-2-yl)thieno[2,3-d]pyrimidin-4-yl]oxy}-3-(2-methoxyphenyl)propanoic acid]?
A: IC50 ([1]; Homo sapiens, NCI-H929, 48 h): 0.254 µM; IC50 (Mcl-1 protein): 1.5e-08 M

Q: What does the source list for `COc1ccccc1CC(Oc1ncnc2sc(-c3ccco3)c(-c3ccc(OCCN4CCN(CC(F)F)CC4)c(Cl)c3C)c12)C(=O)O` [Example 328, (2R)-2-{[(5Sa)-5-(3-chloro-4-{2-[4-(2,2-difluoroethyl)piperazin-1-yl]ethoxy}-2-methylphenyl)-6-(furan-2-yl)thieno[2,3-d]pyrimidin-4-yl]oxy}-3-(2-methoxyphenyl)propanoic acid]?
A: IC50 ([1]; Homo sapiens, NCI-H929, 48 h): 3.03 µM; IC50 (Mcl-1 protein): 5e-09 M

Q: `COc1ccccc1CC(Oc1ncnc2sc(-c3ccco3)c(-c3ccc(OCCN4CCN(Cc5ccccc5)CC4)c(Cl)c3C)c12)C(=O)O` [Example 329, (2R)-2-{[(5Sa)-5-{4-[2-(4-benzylpiperazin-1-yl)ethoxy]-3-chloro-2-methylphenyl}-6-(furan-2-yl)thieno[2,3-d]pyrimidin-4-yl]oxy}-3-(2-methoxyphenyl)propanoic acid] was tested. Which IC50 ([1]; Homo sapiens, NCI-H929, 48 h) did it give?
A: The IC50 was 3.31 µM.

Q: What about the IC50 (Mcl-1 protein) of the same molecule?
A: The IC50 was 6e-08 M.

Q: How did the IC50 ([1]; Homo sapiens, NCI-H929, 48 h) turn out when `COCCN1CCN(CCOc2ccc(-c3c(-c4ccco4)sc4ncnc(OC(Cc5ccccc5OC)C(=O)O)c34)c(C)c2Cl)CC1` [Example 330, (2R)-2-{[(5Sa)-5-(3-chloro-4-{2-[4-(2-methoxyethyl)piperazin-1-yl]ethoxy}-2-methylphenyl)-6-(furan-2-yl)thieno[2,3-d]pyrimidin-4-yl]oxy}-3-(2-methoxyphenyl)propanoic acid] was run?
A: The IC50 was 1.17 µM.

Q: What about the IC50 (Mcl-1 protein) of the same molecule?
A: The IC50 was 8.3e-09 M.

Q: What does the source list for `CNCCOc1ccc(-c2c(-c3ccco3)sc3ncnc(OC(Cc4ccccc4OC)C(=O)O)c23)c(C)c1Cl` [Example 331, (2R)-2-{[(5Sa)-5-{3-chloro-2-methyl-4-[2-(methylamino)ethoxy]phenyl}-6-(furan-2-yl)thieno[2,3-d]pyrimidin-4-yl]oxy}-3-(2-methoxyphenyl)propanoic acid]?
A: IC50 ([1]; Homo sapiens, NCI-H929, 48 h): 0.394 µM; IC50 (Mcl-1 protein): 6e-09 M

Q: Which results are given for `CCc1c(-c2c(-c3ccco3)sc3ncnc(OC(Cc4ccccc4OC)C(=O)O)c23)ccc(OCCN2CCN(C)CC2)c1Cl` [Example 335, (2R)-2-{[(5Sa)-5-{3-chloro-2-ethyl-4-[2-(4-methylpiperazin-1-yl)ethoxy]phenyl}-6-(furan-2-yl)thieno[2,3-d]pyrimidin-4-yl]oxy}-3-(2-methoxyphenyl)propanoic acid]?
A: IC50 ([1]; Homo sapiens, NCI-H929, 48 h): 0.217 µM; IC50 (Mcl-1 protein): 1.2e-08 M

Q: With `COc1ccccc1C[C@@H](Oc1ncnc2sc(-c3ccco3)c(-c3ccc(OCCN4CCN(C)CC4)c(Cl)c3F)c12)C(=O)O` [Example 337, (2R)-2-{[5-{3-chloro-2-fluoro-4-[2-(4-methylpiperazin-1-yl)ethoxy]phenyl}-6-(furan-2-yl)thieno[2,3-d]pyrimidin-4-yl]oxy}-3-(2-methoxyphenyl)propanoic acid] as the molecule, how does the IC50 ([1]; Homo sapiens, NCI-H929, 48 h) read?
A: The IC50 was 1.87 µM.

Q: What about the IC50 (Mcl-1 protein) of the same molecule?
A: Its IC50 is 3.8e-08 M.
